Measurements reported in ChEMBL document CHEMBL1201862, “PubChem BioAssay data set” (2004).
The source made the active and inactive calls.

Assays:
[1] = biological target: T1, Short transient receptor potential channel 4 (Mus musculus, UniProt Q9QUQ5); experiment: block of DAMGO-driven TRPC4 calcium entry – cell-based, HEK293 TRPC4/mu-opioid, Fluo-4 calcium, dose response (AID 434942); format: functional;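 further: potency of inhibitors blocking the TRPC4 calcium response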
T1 sequence (Q9QUQ5 whole entry): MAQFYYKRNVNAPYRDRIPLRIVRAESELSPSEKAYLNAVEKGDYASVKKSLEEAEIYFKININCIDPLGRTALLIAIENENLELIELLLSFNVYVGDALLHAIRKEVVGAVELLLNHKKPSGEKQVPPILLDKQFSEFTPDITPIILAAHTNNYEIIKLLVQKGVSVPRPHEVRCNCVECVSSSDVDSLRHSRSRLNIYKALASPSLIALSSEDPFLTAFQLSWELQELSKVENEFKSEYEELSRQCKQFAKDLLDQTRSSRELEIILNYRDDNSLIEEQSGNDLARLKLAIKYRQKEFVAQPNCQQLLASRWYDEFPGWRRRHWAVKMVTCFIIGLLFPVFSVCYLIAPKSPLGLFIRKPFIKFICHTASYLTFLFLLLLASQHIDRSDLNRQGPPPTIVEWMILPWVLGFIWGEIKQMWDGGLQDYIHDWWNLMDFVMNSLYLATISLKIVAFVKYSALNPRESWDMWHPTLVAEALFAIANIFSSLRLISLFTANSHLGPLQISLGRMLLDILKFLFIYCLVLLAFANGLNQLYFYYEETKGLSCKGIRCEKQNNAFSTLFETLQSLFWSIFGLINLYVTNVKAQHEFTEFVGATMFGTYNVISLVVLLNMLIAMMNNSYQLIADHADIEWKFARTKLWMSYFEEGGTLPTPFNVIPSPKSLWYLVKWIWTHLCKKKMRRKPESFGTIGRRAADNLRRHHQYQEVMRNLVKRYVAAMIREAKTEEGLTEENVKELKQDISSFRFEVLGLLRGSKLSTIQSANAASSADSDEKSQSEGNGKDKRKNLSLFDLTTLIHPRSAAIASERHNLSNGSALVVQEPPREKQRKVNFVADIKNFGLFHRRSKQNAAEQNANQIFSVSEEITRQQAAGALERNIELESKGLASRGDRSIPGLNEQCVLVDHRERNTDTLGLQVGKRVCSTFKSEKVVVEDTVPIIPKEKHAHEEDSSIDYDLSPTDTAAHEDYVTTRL

[2] = Intein inhibitors as potential Tuberculosis drugs, a cytotoxicity screen. [Related pubchem assays (depositor defined):AID2221, AID2223, AID434968, AID435010, AID449749, AID449750, AID489010]; format: functional
Protein RecA = biological target: T2, Protein RecA (Mycobacterium tuberculosis, UniProt P9WHJ3); experiment: Fluorescence Cell-Free Homogeneous Dose Retest to Identify Inhibitors of RecA-Intein Splicing Activity. [Related pubchem assays (depositor defined):AID2097, AID2223, AID489010, AID492950]; format: functional
T2 sequence (P9WHJ3 whole entry): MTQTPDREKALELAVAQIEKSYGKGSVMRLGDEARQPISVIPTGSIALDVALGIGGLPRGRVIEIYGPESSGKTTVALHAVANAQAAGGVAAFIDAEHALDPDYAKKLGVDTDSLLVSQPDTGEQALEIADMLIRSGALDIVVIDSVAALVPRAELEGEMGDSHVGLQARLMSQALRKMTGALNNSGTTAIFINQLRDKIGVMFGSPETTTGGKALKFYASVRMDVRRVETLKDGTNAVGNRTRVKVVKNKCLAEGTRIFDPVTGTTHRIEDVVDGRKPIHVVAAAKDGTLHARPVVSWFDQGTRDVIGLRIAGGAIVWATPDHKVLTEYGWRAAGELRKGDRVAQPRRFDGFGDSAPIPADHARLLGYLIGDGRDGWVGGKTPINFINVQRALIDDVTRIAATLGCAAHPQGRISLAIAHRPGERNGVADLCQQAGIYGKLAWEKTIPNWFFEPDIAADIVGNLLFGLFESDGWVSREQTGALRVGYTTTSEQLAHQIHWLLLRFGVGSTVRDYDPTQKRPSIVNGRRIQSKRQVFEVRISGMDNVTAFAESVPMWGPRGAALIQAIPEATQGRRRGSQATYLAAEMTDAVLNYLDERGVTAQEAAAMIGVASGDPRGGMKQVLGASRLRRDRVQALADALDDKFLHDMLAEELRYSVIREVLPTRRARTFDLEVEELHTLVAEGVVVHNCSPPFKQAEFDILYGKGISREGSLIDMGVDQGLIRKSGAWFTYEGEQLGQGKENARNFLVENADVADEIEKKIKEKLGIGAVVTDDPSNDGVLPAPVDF

[3] = HEK-293T viability loss after treatment – luminescence, T-cell screen hits, cytotoxicity control for TCR NF-kB inhibitor project, dose response (AID 489026); format: functional, cell-based;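 further: cells exposed to compound about 14 hours before the viability readout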
[4] = biological target: T3, Replicative DNA helicase DnaB (Mycobacterium tuberculosis, UniProt P9WMR3); experiment: DnaB intein splicing inhibitors, dose response, biochemical, cell-free fluorescence (AID 449749); format: functional
T3 sequence (P9WMR3 whole entry): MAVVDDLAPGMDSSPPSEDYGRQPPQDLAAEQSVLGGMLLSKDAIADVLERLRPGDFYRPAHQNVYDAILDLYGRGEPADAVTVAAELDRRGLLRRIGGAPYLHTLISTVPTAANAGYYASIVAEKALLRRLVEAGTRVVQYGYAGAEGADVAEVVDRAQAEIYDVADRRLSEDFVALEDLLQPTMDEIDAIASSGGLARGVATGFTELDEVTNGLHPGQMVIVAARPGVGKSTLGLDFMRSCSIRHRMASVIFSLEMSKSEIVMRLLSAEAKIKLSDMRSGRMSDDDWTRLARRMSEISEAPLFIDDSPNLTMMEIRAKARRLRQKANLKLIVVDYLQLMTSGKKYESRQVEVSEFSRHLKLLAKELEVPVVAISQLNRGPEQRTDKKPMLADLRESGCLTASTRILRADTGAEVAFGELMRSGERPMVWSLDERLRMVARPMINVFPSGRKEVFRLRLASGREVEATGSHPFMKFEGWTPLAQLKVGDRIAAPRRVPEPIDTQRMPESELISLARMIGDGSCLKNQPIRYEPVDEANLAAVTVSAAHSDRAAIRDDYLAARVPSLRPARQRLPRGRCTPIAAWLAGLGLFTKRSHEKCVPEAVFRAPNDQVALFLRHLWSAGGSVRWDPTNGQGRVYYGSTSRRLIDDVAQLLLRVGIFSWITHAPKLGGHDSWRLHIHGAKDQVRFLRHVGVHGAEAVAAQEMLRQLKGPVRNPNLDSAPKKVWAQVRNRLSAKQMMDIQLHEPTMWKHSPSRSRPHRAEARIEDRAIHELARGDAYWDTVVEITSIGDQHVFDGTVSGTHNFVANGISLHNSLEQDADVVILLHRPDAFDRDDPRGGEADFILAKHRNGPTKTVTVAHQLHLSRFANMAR

[5] = biological target: Voltage-dependent T-type calcium channel subunit alpha-1H (Homo sapiens, UniProt O95180); format: functional;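 further: channel activity triggered by adding a high calcium stimulation buffer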
Voltage-dependent T-type calcium channel subunit alpha-1H, sequence (O95180 whole entry): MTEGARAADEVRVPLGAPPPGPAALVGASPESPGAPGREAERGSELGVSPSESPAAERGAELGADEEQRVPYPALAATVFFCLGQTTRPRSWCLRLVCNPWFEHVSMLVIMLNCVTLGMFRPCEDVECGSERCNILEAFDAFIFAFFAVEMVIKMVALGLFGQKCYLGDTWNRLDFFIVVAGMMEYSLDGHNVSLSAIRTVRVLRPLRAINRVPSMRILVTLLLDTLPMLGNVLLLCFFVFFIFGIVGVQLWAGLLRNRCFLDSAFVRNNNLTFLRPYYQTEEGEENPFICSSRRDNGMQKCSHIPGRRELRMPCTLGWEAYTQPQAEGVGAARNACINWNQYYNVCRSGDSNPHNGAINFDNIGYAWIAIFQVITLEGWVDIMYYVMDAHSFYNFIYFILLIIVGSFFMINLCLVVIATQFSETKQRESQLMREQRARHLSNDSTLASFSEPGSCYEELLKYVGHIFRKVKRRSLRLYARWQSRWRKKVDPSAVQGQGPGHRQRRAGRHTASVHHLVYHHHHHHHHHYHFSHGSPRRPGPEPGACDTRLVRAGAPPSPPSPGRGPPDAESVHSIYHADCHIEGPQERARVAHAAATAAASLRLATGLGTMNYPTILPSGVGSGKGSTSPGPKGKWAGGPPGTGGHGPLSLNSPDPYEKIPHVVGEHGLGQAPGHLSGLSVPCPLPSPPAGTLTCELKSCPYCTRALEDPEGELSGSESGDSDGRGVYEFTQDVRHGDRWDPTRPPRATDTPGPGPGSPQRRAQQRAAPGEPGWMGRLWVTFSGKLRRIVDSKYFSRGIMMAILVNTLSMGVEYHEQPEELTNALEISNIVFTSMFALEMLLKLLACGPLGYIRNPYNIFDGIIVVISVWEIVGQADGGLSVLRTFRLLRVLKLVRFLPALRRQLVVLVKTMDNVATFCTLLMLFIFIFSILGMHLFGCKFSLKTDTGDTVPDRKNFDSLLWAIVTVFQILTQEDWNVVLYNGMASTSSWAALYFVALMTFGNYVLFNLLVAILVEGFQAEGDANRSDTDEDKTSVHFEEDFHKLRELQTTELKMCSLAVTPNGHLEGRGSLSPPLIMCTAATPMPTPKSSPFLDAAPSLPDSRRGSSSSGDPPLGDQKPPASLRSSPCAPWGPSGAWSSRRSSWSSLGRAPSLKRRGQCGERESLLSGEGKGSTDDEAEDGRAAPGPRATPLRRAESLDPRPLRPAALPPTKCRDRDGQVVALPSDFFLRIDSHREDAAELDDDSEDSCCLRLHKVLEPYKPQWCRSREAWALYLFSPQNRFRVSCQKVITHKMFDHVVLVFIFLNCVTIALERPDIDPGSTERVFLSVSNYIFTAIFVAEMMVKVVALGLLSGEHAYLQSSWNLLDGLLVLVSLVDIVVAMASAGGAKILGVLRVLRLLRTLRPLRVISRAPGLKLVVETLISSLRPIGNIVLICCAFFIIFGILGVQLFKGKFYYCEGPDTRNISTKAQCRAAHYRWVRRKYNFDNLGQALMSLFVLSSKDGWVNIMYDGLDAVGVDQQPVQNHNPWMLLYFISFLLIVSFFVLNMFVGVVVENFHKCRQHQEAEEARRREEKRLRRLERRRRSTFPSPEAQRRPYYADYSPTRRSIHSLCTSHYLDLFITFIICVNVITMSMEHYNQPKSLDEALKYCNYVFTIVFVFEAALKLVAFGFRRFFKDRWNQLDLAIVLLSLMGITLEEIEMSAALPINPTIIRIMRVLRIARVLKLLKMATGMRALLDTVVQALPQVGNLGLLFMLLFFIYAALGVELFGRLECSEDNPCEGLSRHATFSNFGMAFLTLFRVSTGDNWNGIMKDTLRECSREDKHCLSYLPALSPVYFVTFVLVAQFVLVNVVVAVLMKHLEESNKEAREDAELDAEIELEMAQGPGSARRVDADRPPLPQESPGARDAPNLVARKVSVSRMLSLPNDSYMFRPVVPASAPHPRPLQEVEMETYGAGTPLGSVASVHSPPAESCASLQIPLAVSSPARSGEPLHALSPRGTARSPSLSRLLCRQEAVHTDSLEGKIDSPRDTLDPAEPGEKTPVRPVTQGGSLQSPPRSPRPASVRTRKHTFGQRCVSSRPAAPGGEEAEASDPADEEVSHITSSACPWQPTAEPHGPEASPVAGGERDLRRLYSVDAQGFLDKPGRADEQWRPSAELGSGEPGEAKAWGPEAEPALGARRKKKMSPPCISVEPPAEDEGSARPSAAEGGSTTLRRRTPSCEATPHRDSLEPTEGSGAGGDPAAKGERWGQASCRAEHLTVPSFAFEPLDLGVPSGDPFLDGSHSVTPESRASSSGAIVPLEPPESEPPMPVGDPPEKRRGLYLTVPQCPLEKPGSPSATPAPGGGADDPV

Ion channel NompC = Ion channel NompC (Danio rerio, UniProt Q7T1G6); experiment: Fluorescence counterscreen assay for TRPML3 agonists: dose response cell-based high-throughput screening assay to identify agonists of the transient receptor potential channel N1 (TRPN1). [Related pubchem assays: 1526, 1424, 1448 ]; format: functional
Ion channel NompC, sequence (Q7T1G6 whole entry): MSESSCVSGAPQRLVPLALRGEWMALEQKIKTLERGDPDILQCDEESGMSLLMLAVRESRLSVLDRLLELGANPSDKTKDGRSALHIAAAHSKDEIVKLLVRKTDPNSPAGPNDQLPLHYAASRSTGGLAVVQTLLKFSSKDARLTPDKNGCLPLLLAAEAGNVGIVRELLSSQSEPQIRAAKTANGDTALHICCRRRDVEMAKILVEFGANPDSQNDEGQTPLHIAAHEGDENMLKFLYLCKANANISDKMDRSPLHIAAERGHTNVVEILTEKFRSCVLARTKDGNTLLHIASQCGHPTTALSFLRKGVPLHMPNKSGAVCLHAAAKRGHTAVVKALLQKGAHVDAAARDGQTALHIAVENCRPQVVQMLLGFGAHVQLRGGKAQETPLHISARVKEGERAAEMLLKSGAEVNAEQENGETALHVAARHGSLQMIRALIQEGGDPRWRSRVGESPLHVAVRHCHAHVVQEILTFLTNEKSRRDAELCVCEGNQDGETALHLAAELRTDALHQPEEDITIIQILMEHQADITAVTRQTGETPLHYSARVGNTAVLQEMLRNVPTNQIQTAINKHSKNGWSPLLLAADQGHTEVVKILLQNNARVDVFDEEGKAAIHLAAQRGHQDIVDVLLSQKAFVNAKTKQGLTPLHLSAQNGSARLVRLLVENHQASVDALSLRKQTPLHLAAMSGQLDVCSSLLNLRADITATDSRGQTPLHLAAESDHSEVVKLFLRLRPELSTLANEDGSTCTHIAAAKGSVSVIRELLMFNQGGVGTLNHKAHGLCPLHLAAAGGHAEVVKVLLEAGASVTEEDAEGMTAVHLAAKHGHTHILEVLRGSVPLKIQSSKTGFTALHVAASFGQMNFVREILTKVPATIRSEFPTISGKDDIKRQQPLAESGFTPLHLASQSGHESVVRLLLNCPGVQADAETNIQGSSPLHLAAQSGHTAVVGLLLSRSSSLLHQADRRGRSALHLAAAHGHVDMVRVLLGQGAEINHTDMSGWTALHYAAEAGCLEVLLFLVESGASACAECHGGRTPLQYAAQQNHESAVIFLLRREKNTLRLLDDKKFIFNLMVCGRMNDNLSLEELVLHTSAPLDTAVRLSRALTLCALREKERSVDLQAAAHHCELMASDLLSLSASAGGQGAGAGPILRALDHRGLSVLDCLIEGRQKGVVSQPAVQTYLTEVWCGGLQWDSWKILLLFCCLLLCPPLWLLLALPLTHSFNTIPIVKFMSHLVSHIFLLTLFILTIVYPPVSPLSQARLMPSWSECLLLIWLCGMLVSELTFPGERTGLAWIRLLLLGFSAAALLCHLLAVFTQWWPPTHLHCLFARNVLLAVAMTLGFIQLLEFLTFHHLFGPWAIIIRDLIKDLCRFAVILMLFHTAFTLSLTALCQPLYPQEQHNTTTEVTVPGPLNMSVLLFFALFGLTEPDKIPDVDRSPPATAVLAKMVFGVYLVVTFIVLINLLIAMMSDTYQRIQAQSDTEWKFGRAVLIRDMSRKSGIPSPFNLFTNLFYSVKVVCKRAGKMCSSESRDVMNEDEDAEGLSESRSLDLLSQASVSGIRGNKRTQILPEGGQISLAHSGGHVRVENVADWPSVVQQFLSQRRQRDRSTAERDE

Mucolipin-3 = biological target: T4, Mucolipin-3 (Homo sapiens, UniProt Q8TDD5); experiment: Dose response cell-based high-throughput screening assay for agonists of the transient receptor potential channel ML3 (TRPML3). [Related pubchem assays: 1526, 1424, 1448 ]; format: functional
T4 sequence (Q8TDD5 whole entry): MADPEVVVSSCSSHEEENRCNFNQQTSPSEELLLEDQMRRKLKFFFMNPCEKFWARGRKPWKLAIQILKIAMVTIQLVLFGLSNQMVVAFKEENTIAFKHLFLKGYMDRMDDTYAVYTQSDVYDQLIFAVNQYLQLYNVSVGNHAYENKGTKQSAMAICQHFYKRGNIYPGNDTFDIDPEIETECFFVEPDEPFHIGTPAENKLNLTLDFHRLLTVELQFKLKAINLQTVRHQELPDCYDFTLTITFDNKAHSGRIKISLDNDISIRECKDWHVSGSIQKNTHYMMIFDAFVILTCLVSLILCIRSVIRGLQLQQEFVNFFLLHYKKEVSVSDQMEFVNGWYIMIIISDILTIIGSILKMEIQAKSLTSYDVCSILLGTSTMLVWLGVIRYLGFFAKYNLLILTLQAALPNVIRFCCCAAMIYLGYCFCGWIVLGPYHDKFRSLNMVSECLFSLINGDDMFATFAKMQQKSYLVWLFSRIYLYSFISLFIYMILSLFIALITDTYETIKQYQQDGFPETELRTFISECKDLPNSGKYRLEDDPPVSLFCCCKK

X-box-binding protein 1 = biological target: T5, X-box-binding protein 1 (Homo sapiens, UniProt P17861); format: functional, Cricetulus griseus;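 further: confirmatory dose-response counter-screen serving a CHOP assay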
T5 sequence (P17861 whole entry): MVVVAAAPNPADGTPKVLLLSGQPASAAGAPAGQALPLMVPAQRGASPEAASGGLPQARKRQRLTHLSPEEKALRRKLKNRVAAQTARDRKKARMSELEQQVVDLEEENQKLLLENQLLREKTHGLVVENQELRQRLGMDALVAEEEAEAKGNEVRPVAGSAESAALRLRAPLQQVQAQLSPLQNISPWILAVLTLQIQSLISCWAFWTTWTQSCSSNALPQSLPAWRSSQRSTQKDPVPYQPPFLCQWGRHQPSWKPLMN

SUMO-activating enzyme = SUMO-activating enzyme (Homo sapiens, UniProt Q9UBT2); experiment: blockers of UBC9-mediated SUMO conjugation – biochemical, AlphaScreen, SUMOylation inhibitor project, confirmation (AID 2018); format: functional
[6] = biological target: T6, E3 ubiquitin-protein ligase XIAP (Homo sapiens, UniProt P98170); experiment: Counter Screen using XIAP-Bir3 for Chemical Antagonists of Bir1/2 domains of IAP-family anti-apoptotic proteins. [Related pubchem assays (depositor defined):AID1018, AID1449, AID1514, AID1638, AID1749, AID1750, AID488957, AID488963]
T6 sequence (P98170 whole entry): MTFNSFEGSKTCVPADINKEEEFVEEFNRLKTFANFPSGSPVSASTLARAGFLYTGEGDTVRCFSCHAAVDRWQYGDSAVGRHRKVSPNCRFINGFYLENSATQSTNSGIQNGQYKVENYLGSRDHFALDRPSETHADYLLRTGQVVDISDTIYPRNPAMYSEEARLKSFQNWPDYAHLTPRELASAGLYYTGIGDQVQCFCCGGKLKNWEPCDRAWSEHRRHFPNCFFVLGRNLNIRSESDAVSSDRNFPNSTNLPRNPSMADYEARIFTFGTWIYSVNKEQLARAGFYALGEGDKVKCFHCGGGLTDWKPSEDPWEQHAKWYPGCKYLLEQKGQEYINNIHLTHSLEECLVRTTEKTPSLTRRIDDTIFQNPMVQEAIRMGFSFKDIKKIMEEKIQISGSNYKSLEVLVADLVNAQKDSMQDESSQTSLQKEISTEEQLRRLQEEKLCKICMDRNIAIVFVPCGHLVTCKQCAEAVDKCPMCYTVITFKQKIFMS

[7] = biological target: T6, E3 ubiquitin-protein ligase XIAP; experiment: small molecules displacing peptide from XIAP – biochemical, IAP family, fluorescence polarization (AID 1018); format: functional
[8] = Luminescence Cell-Based Dose Retest to Confirm Inhibitors of Cancer Stem Cells. [Related pubchem assays (depositor defined):AID2717, AID2721]; format: functional; conditions: Homo sapiens
[9] = biological target: Alkaline phosphatase, placental type (Homo sapiens, UniProt P05187); experiment: human placental alkaline phosphatase inhibition – biochemical, luminescence, confirmation (AID 1512); format: functional
Alkaline phosphatase, placental type, sequence (P05187 whole entry): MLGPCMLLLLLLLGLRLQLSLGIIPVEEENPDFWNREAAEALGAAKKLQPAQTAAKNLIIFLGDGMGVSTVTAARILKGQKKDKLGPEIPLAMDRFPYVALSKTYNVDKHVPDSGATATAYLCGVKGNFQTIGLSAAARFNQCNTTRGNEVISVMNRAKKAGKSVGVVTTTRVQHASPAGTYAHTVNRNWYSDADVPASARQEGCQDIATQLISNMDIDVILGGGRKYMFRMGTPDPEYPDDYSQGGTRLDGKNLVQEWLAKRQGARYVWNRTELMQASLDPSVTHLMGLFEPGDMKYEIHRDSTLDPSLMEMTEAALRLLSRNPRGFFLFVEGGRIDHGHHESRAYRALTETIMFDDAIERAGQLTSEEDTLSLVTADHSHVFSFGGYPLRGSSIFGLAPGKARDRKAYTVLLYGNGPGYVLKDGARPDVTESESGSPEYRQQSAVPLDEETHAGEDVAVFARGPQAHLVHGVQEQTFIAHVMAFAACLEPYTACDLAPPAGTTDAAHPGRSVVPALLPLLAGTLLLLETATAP

[10] = biological target: T7, Alkaline phosphatase, tissue-nonspecific isozyme (Homo sapiens, UniProt P05186); experiment: potency against alkaline phosphatase TNAP – biochemical, luminescent, dose response, SAR follow-up (AID 1056)
T7 sequence (P05186 whole entry): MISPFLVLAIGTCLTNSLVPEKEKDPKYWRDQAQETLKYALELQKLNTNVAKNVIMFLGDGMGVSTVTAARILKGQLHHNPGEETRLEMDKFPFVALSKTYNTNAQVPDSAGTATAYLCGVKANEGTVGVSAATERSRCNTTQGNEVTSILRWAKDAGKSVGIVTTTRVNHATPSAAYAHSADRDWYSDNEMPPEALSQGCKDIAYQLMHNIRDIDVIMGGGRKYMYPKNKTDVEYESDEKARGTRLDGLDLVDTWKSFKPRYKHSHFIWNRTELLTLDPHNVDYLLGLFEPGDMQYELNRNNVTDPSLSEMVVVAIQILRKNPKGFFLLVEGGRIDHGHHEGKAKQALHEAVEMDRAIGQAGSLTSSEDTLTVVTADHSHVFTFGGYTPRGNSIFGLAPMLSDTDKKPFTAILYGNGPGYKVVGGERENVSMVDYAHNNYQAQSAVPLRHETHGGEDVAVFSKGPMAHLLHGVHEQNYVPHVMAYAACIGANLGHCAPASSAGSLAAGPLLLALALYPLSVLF
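Wherever CC50 is given: cells exposed to compound for 72 hours before luminescence readout.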

O=c1oc2ccccc2c(Nc2ccccc2)c1CN1CCCCC1
EC50 [1]: 3.35 µM (active)

COc1cc(NCCCCCCCN)c2ncccc2c1
CC50 [2]: > 40 µM (active)
EC50 (Protein RecA): 0.401 µM (active)
IC50 [3]: 46.9 µM (inactive)
AC50 [4]: 2.12 µM (active)

Cc1oc(-c2ccc(Cl)cc2)nc1CN1CCC(C(=O)NCc2cccs2)CC1
EC50 [5]: 4.32 µM (active)
EC50 [1]: 1.5 µM (active)

CN(CC(=O)ONC(=N)c1cccc([N+](=O)[O-])c1)S(=O)(=O)c1ccccc1
EC50 (Ion channel NompC): > 29.9 µM (not active)
EC50 (Mucolipin-3): 12.4 µM (not active)

Cc1cccc(NC(=O)/C(C#N)=C/c2cn(CC(=O)NCc3ccco3)c3ccccc23)c1C
Absolute IC50 (XBP1) (X-box-binding protein 1): < 10 µM
IC50 (SUMO-activating enzyme): 36.2 µM (active)

CN(CC(=O)O)c1ccc(C(F)(F)F)cc1[N+](=O)[O-]
IC50 [6]: > 100 µM (inactive)
IC50 [7]: > 100 µM (not active)

COc1ccccc1CNC(=O)COC(=O)Cc1ccsc1
IC50 [6]: > 100 µM (inactive)
IC50 [7]: > 100 µM (not active)

O=C1C2C3C=CC(C3)C2C(=O)N1c1ccc(N2CCN(c3ccccn3)CC2)c([N+](=O)[O-])c1 (configuration not stated)
EC50 (Ion channel NompC): > 29.9 µM (not active)
AC50 [8]: 0.619 µM (active)
EC50 (Mucolipin-3): > 29.9 µM (not active)

COC(=O)c1cnc(N2CCCN(S(=O)(=O)c3ccccc3)CC2)nc1C(F)(F)F
EC50 (Ion channel NompC): > 29.9 µM (not active)
EC50 (Mucolipin-3): > 29.9 µM (not active)

CN(C)CCCN(C(=O)c1ccc(S(=O)(=O)N2CCCC2)cc1)c1nc2c(F)cc(F)cc2s1
EC50 [1]: 3.76 µM (active)

C=CCn1c(SCC(=O)c2ccc(O)c(O)c2)nnc1-c1ccc(OC)cc1
IC50 [9]: 13.6 µM (active)
IC50 [10]: > 100 µM (inactive)

Cc1ccc(-c2nnc(SCC(=O)c3ccc(O)c(O)c3)n2Cc2ccco2)cc1
IC50 [9]: 5.32 µM (active)
IC50 [10]: 19.2 µM (active)

Cc1cc(C(=O)NCc2ccc(O)c(O)c2)oc1C
IC50 [9]: 52.7 µM (active)
IC50 [10]: > 100 µM (inactive)
